Entries after “also recorded” stand apart in the source; their conditions may differ.
What was measured:
[1] = test system: receiver cells (ADCTF, gRNA targeting minimal CYC1 promoter driving EGFP); experiment: Coculture of sender and receiver strains treated with IAM; format: cell-based, Saccharomyces cerevisiae; details: saturating IAM
From the text: FIG. 5A illustrates coculture of sender and receiver strains. Sender cells convert IAM into auxin that then diffuses out of sender cells and into receiver cells where it causes the degradation of ADCTFs, producing a drop in fluorescence.
Sender cells can produce a tunable auxin response in receiver cells. Sender and receiver cells were cocultured in different ratios to measure the effect of sender cell concentration on auxin signal production. Senders constitutively express iaaH and the receivers expressed an activating ADCTF and a gRNA targeting a minimal CYC1 promoter driving EGFP (see FIG. 5A). […] Three different receiver strains with a range of responses to auxin were tested with the sender strain. […] In addition, a 10% fraction of sender cells is sufficient for a significant change in fluorescence in receiver cells at steady state and a 50% fraction produces a nearly saturating signal (see FIGS. 5C and 5D).

[2] = test system: EYFP-IAA17|AFB2 auxin reporting strain expressing iaaH; experiment: Time-lapse cytometry of iaaH sender strain with EYFP-IAA17|AFB2 auxin reporter after IAM or auxin; format: cell-based, Saccharomyces cerevisiae
From the text: FIG. 3A illustrates an auxin sender strain design. The iaaH enzyme of Agrobacterium tumefaciens catalyzes the conversion of indole-3-acetamide (IAM) into auxin, inducing the degradation of proteins fused to an auxin degron. The iaaH enzyme (sender cells) was integrated into an auxin reporting strain (the EYFP-IAA17|AFB2 strain from Havens, et al. (2012) Plant Physiol. 160, 135-42) to test for internal auxin production.
Yeast can produce tunable levels of auxin via expression of Iaah from Agrobacterium tumefaciens. To generate an auxin producing strain, half of the IAM pathway from Agrobacterium tumefaciens was integrated into yeast (see Zhao, Y. (2010) Annu. Rev. Plant Biol. 61, 49-64). The IAM pathway is a two-step enzymatic process that converts tryptophan to IAM and then into auxin. The first step is via tryptophan-2-monooxygenase (iaaM, not examined here). The second step is catalyzed by indole-3-acetamide hydrolase (iaaH). To test whether yeast could produce auxin from IAM using only the second enzyme, the iaaH gene from the Agrobacterium tumefaciens Ti plasmid (see Pacurar, D. I., et al. (2011) Physiol. Mol. Plant Pathol. 76, 76-81) was integrated into an auxin reporting yeast strain (see FIG. 3A) containing a IAA-YFP fusion protein. After adding IAM, reporter degradation rates were measured via time-lapse cytometry (see FIG. 3B).
(§1) All cytometry measurements were acquired with an ACCURI™ C6 cytometer with attached CSAMPLER™ apparatus using 488 nm and 640 nm excitation lasers and a 533 nm (FL-1: YFP/GFP) emission filter. For experiments involving steady-state ADC behavior (see FIGS. 6A-7B) cultures were grown overnight in SC media with 1 nM beta-estradiol for ADC expression induction. The next morning they were diluted down 1:100 and then grown up for 5 hours and then induced with varying auxin concentrations from stock solutions. These cultures were then grown overnight and fluorescence was measured the next day. For the replicates, untreated cultures from the previous day's experiments were used as overnights to begin the next day's cultures.

[3] = test system: laboratory strains of yeast; details: grown in standard conditions; cited from earlier work
[4] = test system: ADCTF (auxin receiver) strain, minimal CYC1 promoter driving EGFP; experiment: Cytometry of ADCTF receiver yeast strains (GFP reporter) after auxin induction; format: cell-based, Saccharomyces cerevisiae
From the text: Synthetic, scalable, auxin-modulated transcription factors are provided. To link an auxin sensor to diverse transcriptional responses and targets, auxin degradable CRISPR transcription factors (ADCTFs) with three modular domains were designed (see FIG. 1A). In some embodiments, a core component of the ADCTFs can be the CRISPR-based transcription factor described by Farzadfard, et al. (“Tunable and multifunctional eukaryotic transcription factors based on CRISPR/Cas,” ACS synthetic biology 2.10 (2013): 604-613), wherein a dCas9 protein functions as a programmable DNA binding module. The dCas9 was fused to a transcriptional effector domain, in this case the transcriptional activator VP64, and to an IAA degron. In the presence of an AFB, ADCTFs should generally be ubiquitinated and degraded when exposed to auxin. The ADCTFs were tested by targeting them to activate the expression of EGFP from a minimal CYC1 promoter and observing deactivation of fluorescence upon the addition of auxin. […] Auxin dependent regulation was independent of the promoter being regulated by the ADCTF (see FIG. 6B). The observed effect was also reversible.
as §1
For time course experiments, cultures were grown overnight in SC media with 1 nM beta-estradiol for ADC expression induction. The next morning two sets of parallel cultures were set up by diluting down the overnights 1:100. These were then grown up for 5 hours and then induced with 30 μM auxin and reads were taken every 30 minutes for approximately seven hours. A final steady state reading was taken the next day.
Cytometry data were analyzed using custom R scripts and the FLOWCORE™ package by first gating for the yeast diploid population and then generating mean fluorescence values for every point. These datasets were then collectively fit using the LOESS fitting function in R and metrics and error were derived from these fits. For the recovery experiments, the same protocol was used except the overnight cultures were grown up in SC with 1 nM beta-estradiol and 30 μM auxin.

[5] = test system: UBQ1 promoter driving venus-luciferase reporter repressed by ADCTF; experiment: ADCTF-regulated venus-luciferase reporter in plants after auxin treatment; format: in vivo, Arabidopsis thaliana
From the text: FIG. 12A is a schematic of the genetic circuit that was transformed into Arabidopsis thaliana to test the function of the hormone degradable CRISPR based transcription factor (HDCTF). […] These complex together and cause repression of the UBQ1 promoter, which is driving the expression of a venus-luciferase fusion reporter with a nuclear localization tag fused to it. Auxin can interact with the degron domain of the ADCTF (a version of the HDCTF) to degrade the transcription factor and relieve repression.
FIG. 12B is graph showing the normalized luciferase reporter activity over time for two plants, one of which has an ADCTF with a functional degron and the other which has a ADCTF with a stabilized degron. The orange bar indicates when the plants were exposed to either an auxin (solid line) or control (dashed line) treatment. The box plot summarizes the behavior of several plant lines with the functional or stabilized degron ADCTFs eighty minutes after treatment.

NC(=O)Cc1c[nH]c2ccccc12 [IAM, indole-3-acetamide]
fluorescence / gene activation in receiver strain [1]: dropped in fluorescence over time; also recorded: comparable to direct addition of auxin
delay between addition of IAM and production of auxin [2]: no significant delay
auxin-induced degradation rate (t1/2) of reporter ([2]; for a given molarity, compared with auxin): comparable to that of native auxin
fluorescence of sender cells following addition of IAM ([2]; time-lapse cytometry): decreased to basal levels
steady state fluorescence of sender cells ([2]; varying doses of IAM): lower steady state fluorescence; also recorded: converge to those of auxin

auxin
effects on laboratory strains of yeast [3]: does not have measurable effects
release of regulation with minimal pGAL promoter driving GFP ([4]; 30 μM auxin, degron 17 with AFB2 or TIR1-DM, compared with pCYC1 target): comparable release of regulation
GFP fluorescence level following addition of auxin ([4]; time-lapse cytometry, ADCTF strain expressing gRNA): dropped to basal levels; also recorded: dropped to levels at or below the control (no gRNA) levels
reporter expression after auxin was removed ([4]; wash-out after steady state): returned to its activated state
normalized luciferase reporter activity ([5]; ADCTF with functional degron, eighty minutes after treatment): significant increase in reporter expression
reporter expression in root tip (confocal microscopy) ([5]; root tip): significant increase in reporter expression

B1: tir1-D/M: mutant of TIR1 F-box protein (protein, UniProt Q570C0 1-594, looked up, variant D170E M473L)
Protein TRANSPORT INHIBITOR …: MQKRIALSFPEEVLEHVFSFIQLDKDRNSVSLVCKSWYEIERWCRRKVFIGNCYAVSPATVIRRFPKVRSVELKGKPHFADFNLVPDGWGGYVYPWIEAMSSSYTWLEEIRLKRMVVTDDCLELIAKSFKNFKVLVLSSCEGFSTDGLAAIAATCRNLKELDLRESDVDEVSGHWLSHFPDTYTSLVSLNISCLASEVSFSALERLVTRCPNLKSLKLNRAVPLEKLATLLQRAPQLEELGTGGYTAEVRPDVYSGLSVALSGCKELRCLSGFWDAVPAYLPAVYSVCSRLTTLNLSYATVQSYDLVKLLCQCPKLQRLWVLDYIEDAGLEVLASTCKDLRELRVFPSEPFVMEPNVALTEQGLVSVSMGCPKLESVLYFCRQMTNAALITIARNRPNMTRFRLCIIEPKAPDYLTLEPLDIGFGAIVEHCKDLRRLSLSGLLTDKVFEYIGTYAKKMEMLSVAFAGDSDLGLHHVLSGCDSLRKLEIRDCPFGDKALLANASKLETMRSLWMSSCSVSFGACKLLGQKMPKLNVEVIDERGAPDSRPESCPVERVFIYRTVAGPRFDMPGFVWNMDQDSTMRFSRQIITTNGL
degradation kinetics (time to 50% degradation) ([4]; 30 μM auxin induction, ranking across library): fastest overall
auxin sensitivity range conferred by F-box protein ([4]; steady state, dose response twenty-four hours after induction): narrowest

From patent US20170369892A1, “HORMONE DEGRADABLE CRISPR-BASED TRANSCRIPTION FACTORS” (University of Washington, priority 2016, published 2017)
